Patent US20240366560A1, “SMALL MOLECULE TREATMENT OF FATTY LIVER DISEASE AND HCC” (ScandiEdge Therapeutics AB, priority 2021, published 2024)

What was measured:
PKLR = PKLR protein level by western blot in HepG2, 2-day drug treatment; assay type: cell-based; settings: HepG2, two days of treatment, dosages per FIG. 5, P<0.05, FIG. 2A
Method: WT HepG2 was included in this study and cultured by Roswell Park Memorial Institute (RPMI, […], Sigma Aldrich) 1640 Medium with 10% fetal bovine serum (FBS) and 1% penicillin-streptomycin (PS). To induce a steatosis model into WT HepG2 cells, high glucose Dulbecco's Modified Eagle Media (DMEM, […]/[…], Sigma-Aldrich) containing 10% FBS and 1% PS was used as medium for one week, together with 10 μg/mL insulin and 10 μM T0901317. All of cells were incubated in the incubator with 5% CO2 and 37° C. (Thermo […]). Fresh medium was provided every two days. As for drug-screening, different numbers of HepG2 cells were seeded for distinct experiments. More in details, 40,000 cells and 500,000 cells were used for 2-day-drug treatment in 96-well-plate and 6-well plate, respectively, while 80,000 cells and 300,000 cells were used for one-week drug treatment in 96-well plate and 6-well plate, respectively. […] Fresh medium was provided every two days. Protein content levels were detected by western blot. After the respective treatment of drugs, the cell pellets were lysed in cell lytic M, followed by protein extraction from supernatant (10 min, 13,000r/min centrifuge). Extracted cell lysate was stored in -20° C. Proteins were quantified through Bovine albumin serum (BAS) standard curve with protein assay dye reagent (BIO-RAD). The proteins were separated by SDS-PAGE with 100v in 90 min by mini-protein TGX precast gels (4-15%, 15 wells, 15 μl/well, BIO-RAD), and then transfer to Mini PVDF transfer package through transfer system (Transfer-Turbo, BIO-RAD). After 30 min blocking with 5% skim milk in cold room (4° C.) and washing with TBST, membrane was cut by the size of interested proteins. Primary antibodies were added into the corresponding membrane sections for overnight binding. Then the membranes were washed with TBST, and the secondary antibodies were incubated for 1 h in cold room. The following antibody were used: (Goat pAb to Rb lg, ab205718, abcam; Rb pAb to beta-actin, ab8227, abcam; […]; Rb pAb to fatty acid synthase, ab99539, abcam). The bindings were imaged by immunostaining and machine (ImageQuant LAS 500). All antibodies were purchased from Abcam online, and βactin was used as global normalized protein. After measurement, the strength of signal for each protein was quantified by ImageJ. The background noise was removed, and all results were normalized by the levels of β-actin. To determine the inhibitory effects of these drugs on the expression level of PKLR, HepG2 was selected as the in vitro model for coherence. […] HepG2 cells were treated with these drugs for two days with different dosages due to their potential cellular toxicities (FIG. 5), and the PKLR protein level was the measured by western blotting. The level of protein expression of PKLR of the drug-treated groups was compared to that of the Ctrl group after normalizing with β-actin.

FASN = FASN protein level by western blot in steatosis-induced HepG2, 7-day drug treatment; assay type: cell-based; settings: steatosis-induced HepG2, 7 days of drug treatment, P<0.05, FIG. 2C
Method: WT HepG2 was included in this study and cultured by Roswell Park Memorial Institute (RPMI, R2405, Sigma Aldrich) 1640 Medium with 10% fetal bovine serum (FBS) and 1% penicillin-streptomycin (PS). To induce a steatosis model into WT HepG2 cells, high glucose Dulbecco's Modified Eagle Media (DMEM, D0822/D5671, Sigma-Aldrich) containing 10% FBS and 1% PS was used as medium for one week, together with 10 μg/mL insulin and 10 μM T0901317. All of cells were incubated in the incubator with 5% CO2 and 37° C. (Thermo SCIENTIFIC). Fresh medium was provided every two days.
As for drug-screening, different numbers of HepG2 cells were seeded for distinct experiments. More in details, 40,000 cells and 500,000 cells were used for 2-day-drug treatment in 96-well-plate and 6-well plate, respectively, while 80,000 cells and 300,000 cells were used for one-week drug treatment in 96-well plate and 6-well plate, respectively. Detailed drug dosages could be found in FIG. 5. Fresh medium was provided every two days.
Protein content levels were detected by western blot. After the respective treatment of drugs, the cell pellets were lysed in cell lytic M, followed by protein extraction from supernatant (10 min, 13,000r/min centrifuge). Extracted cell lysate was stored in −20° C. Proteins were quantified through Bovine albumin serum (BAS) standard curve with protein assay dye reagent (BIO-RAD). The proteins were separated by SDS-PAGE with 100v in 90 min by mini-protein TGX precast gels (4-15%, 15 wells, 15 μl/well, BIO-RAD), and then transfer to Mini PVDF transfer package through transfer system (Transfer-Turbo, BIO-RAD). After 30 min blocking with 5% skim milk in cold room (4° C.) and washing with TBST, membrane was cut by the size of interested proteins. Primary antibodies were added into the corresponding membrane sections for overnight binding. Then the membranes were washed with TBST, and the secondary antibodies were incubated for 1 h in cold room. The following antibody were used: (Goat pAb to Rb lg, ab205718, abcam; Rb pAb to beta-actin, ab8227, abcam; anti-pklr, HPA006653, SIGMA; Rb pAb to fatty acid synthase, ab99539, abcam). The bindings were imaged by immunostaining and machine (ImageQuant LAS 500). All antibodies were purchased from Abcam online, and βactin was used as global normalized protein. After measurement, the strength of signal for each protein was quantified by ImageJ. The background noise was removed, and all results were normalized by the levels of β-actin.
To further analyse the effect of these drugs on lipid accumulation via the DNL pathway, steatosis was induced to HepG2 by treating the cells with high glucose medium (DMEM), insulin and T0901317 (Hansmannel et al., 2006). […] Therefore, the effects of these two drugs on the de novo synthesis of lipids were investigated based on the steatosis-induced HepG2 model. […] Taken together, it was shown that BX-912 and JNK-IN-5A effectively alleviate the protein expression of PKLR and FASN as well as TG levels in HepG2 cell lines, and thus, it was decided to perform in vivo evaluations to test the effect of these two drugs.

Structure (SMILES) | protein expression of PKLR vs Ctrl, normalized with β-actin (PKLR) | protein expression level of FASN (FASN)
O=C(Nc1cccc(Nc2ncc(Br)c(NCCc3cnc[nH]3)n2)c1)N1CCCC1 [BX-912, N-[3-[[5-bromo-4-[[2-(1H-imidazol-5-yl)ethyl]amino]-2-pyrimidinyl]amino]phenyl]-1-pyrrolidinecarboxamide] | significantly down-regulated | significantly reduced
N#Cc1c(NC(=O)c2cccc3ccccc23)sc2c1CCCC2 [JNK-IN-5A, N-(3-cyano-4,5,6,7-tetrahydrobenzo [b]thien-2-yl)-1-naphthalenecarboxamide] | significantly down-regulated | significantly reduced
